# “Also recorded” adds a separate entry of the source.
# How the values were obtained:
# [1] = test system: meningeal lymphatic drainage; assay: Drainage of CSF tracer (OVA-A647) into deep cervical lymph nodes; assay type: in vivo, mice; settings: 7 days after Visudyne/photoconversion, 2 h after i.c.m. tracer, vs control groups
# Method: Mice were anaesthetized by intraperitoneal (i.p.) injection of a mixed solution of ketamine (100 mg/Kg) and xylazine (10 mg/Kg) in saline. The skin of the neck was shaved and cleaned with iodine and 70% ethanol, ophthalmic solution placed on the eyes to prevent drying and the mouse's head was secured in a stereotaxic frame. After making a skin incision, the muscle layers were retracted and the cisterna magna exposed. Using a Hamilton syringe (coupled to a 33-gauge needle), the volume of the desired tracer solution was injected into the CSF-filled cisterna magna compartment. For brain CSF influx and lymphatic drainage experiments, 2 or 5 μL of Alexa Fluor® 594 or 647 conjugated OVA (Thermo Fisher Scientific), at 0.5 mg/mL in artificial CSF (#597316, Harvard Apparatus U.K.), were injected at a rate of 2.5 μL/min. After injecting, the syringe was left in place for additional 2 min to prevent back-flow of CSF.
# mice = assay: Contextual fear conditioning test; assay type: in vivo; settings: Visudyne/photoconversion twice
# Method: This behavioral test was performed following a published protocol^53 with modifications. In this associative learning task, mice are presented with a neutral conditioned cue stimulus that is paired with an aversive unconditioned stimulus in a particular context. The mice learn that the chamber context and the cue stimulus predict the aversive stimulus and elicit a specific behavioral response, namely freezing. Mice were brought into the testing room to acclimate for at least 30 minutes before testing. For the test, we used two Habitest® chambers (Coulbourn Instruments, Allentown, PA, USA) with stainless grid floors attached to a shock generator for foot shock delivery and dimly illuminated with a white fluorescent light bulb. The chambers were cleaned and made odor-free before starting the experiment and between each session (or each mouse). The fear conditioning test was conducted over 2 days. […] On day 2, mice were tested and scored for conditioned fear to the training context for 3 minutes (context test), but with no presentation of the cue stimulus. […] Mice behaviour was recorded by a digital video camera mounted above the conditioning chamber and freezing was manually scored by a blinded experimenter using the Etholog V2.2 software. Parameters analysed included the percentage of time freezing during the 3 minutes of the context test and the last 3 minutes of the cued test.
# 5×FAD mice = assay: Amyloid pathology in meninges and hippocampus of 5xFAD mice (Aβ immunostaining); assay type: in vivo
# Method: (§1) Male or female wild-type mice (C57BL/6J background) were either bred in-house, purchased from the Jackson Laboratory (Bar Harbor, Maine, USA) or provided by the National Institutes of Health/National Institute on Aging (Bethesda, MD, USA). All mice were maintained in the animal facility for habituation for at least 1 week prior to the start of the manipulation/experimentation. C57BL/6J wild-type mice were tested at 2-3, 12-14 and 20-24 months of age. Male hemizygous B6.Cg-Tg(PDGFB-APPSwInd)20Lms/2Mmjax (J20, JAX stock #006293) and B6.Cg-Tg(APPSwFILon,PSEN1*M146L*L286V)6799Vas/Mmjax (5×FAD, JAX stock #008730) were purchased from the Jackson Laboratory and bred in-house on a C57BL/6J background. […] 5×FAD hemizygous mice overexpress the transgene constructs under neural-specific elements of the mouse thymocyte differentiation antigen 1 promoter and present accelerated accumulation of Aβ42 and deposition of amyloid and gliosis in the brain starting at 2 months of age, with dramatic amyloid plaque load without major behavioral deficits at 5 months^45. In-house bred male transgene carriers and non-carrier (WT) littermates were used at different ages that are indicated throughout the manuscript. Prox1^LacZ mice (designated Prox1^+/− mice in this manuscript) on a NMRI background (kindly provided by Dr. Guillermo Oliver, Northwestern University, Chicago, IL) were also bred in-house and used in this study as a constitutive model for dysfunctional lymphatic vessels^46. Mice of all strains were housed in an environment with controlled temperature and humidity, on 12 hours light/dark cycles (lights on at 7:00), and fed with regular rodent's chow and sterilized tap water ad libitum. All experiments were approved by the Institutional Animal Care and Use Committee of the University of Virginia.
# J20 mice = assay: Amyloid pathology in meninges and hippocampus of J20 mice (Aβ immunostaining); assay type: in vivo
# Method: as §1, with “Prox1^LacZ mice (designated Prox1^+/− mice in this manuscript) on a NMRI background (kindly provided by Dr. Guillermo Oliver, Northwestern University, Chicago, IL) were also bred in-house and used in this study as a constitutive model for dysfunctional lymphatic vessels^46. Mice of all strains were housed in an environment with controlled temperature and humidity, on 12 hours light/dark cycles (lights on at 7:00), and fed with regular rodent's chow and sterilized tap water ad libitum. All experiments were approved by the Institutional Animal Care and Use Committee of the University of Virginia.” left out
# [2] = Visudyne/photoconversion for 1.5 months
substance,measurement,setting,value
verteporfin [Visudyne],OVA-A647 drainage from CSF into dCLNs (area fraction),[1],significant reduction; also recorded: significantly less amount of tracer
same,CFC context test,mice; adult mice,no differences between groups
same,CFC cued test,mice; vs control groups,statistically significant difference
same,amyloid deposition in the meninges,5×FAD mice; Visudyne/photoconversion every 3 weeks for 1.5 months from ~2 months of age,marked deposition of amyloid in the meninges
same,brain amyloid burden in the hippocampi,5×FAD mice; [2],aggravation of brain amyloid burden
same,macrophage recruitment to Aβ aggregates in meninges,5×FAD mice; [2],macrophage recruitment to large Aβ aggregates
same,Aβ aggregates / amyloid deposition in the meninges,J20 mice; Visudyne/photoconversion every 3 weeks for 3 months,Aβ aggregates had formed in the meninges; also recorded: marked amyloid deposition
same,Aβ plaque load (coverage) in the hippocampi,J20 mice; Visudyne/photoconversion for 3 months vs vehicle,significantly increased; also recorded: statistically significant increase in coverage
